Laboratory results: ChEMBL document CHEMBL3421607, “Design, synthesis and antibacterial activity of cinnamaldehyde derivatives as inhibitors of the bacterial cell division protein FtsZ” (Eur J Med Chem, 2015)
≈ marks a conversion by molar mass, not a printed value.

Assays:
Type in all cases: functional
[1] = tested on: Bacillus subtilis; assay: microbe, parasite or virus in culture; settings: ATCC 9372, 24 h
Description: Antibacterial activity against penicillin-susceptible Bacillus subtilis ATCC 9372 after 24 hrs by broth microdilution method

[2] = tested on: Staphylococcus epidermidis; assay: Antibacterial activity against penicillin-resistant Staphylococcus epidermidis clinical isolates after 24 hrs by broth microdilution method
[3] = tested on: Pseudomonas aeruginosa; assay: microbe, parasite or virus in culture; settings: ATCC 27853, 5 h
Description: Inhibition of cell division in penicillin-susceptible Pseudomonas aeruginosa ATCC 27853 assessed as filamentation after 5 hrs by phase contrast microscopy

[4] = tested on: Escherichia coli; assay: microbe, parasite or virus in culture; settings: ATCC 25922, 24 h
Description: Antibacterial activity against penicillin-susceptible Escherichia coli ATCC 25922 after 24 hrs by broth microdilution method

[5] = tested on: Streptococcus pyogenes; assay: Antibacterial activity against penicillin-susceptible Streptococcus pyogenes clinical isolates after 24 hrs by broth microdilution method
[6] = tested on: Escherichia coli; assay: microbe, parasite or virus in culture; settings: ATCC 25922, 5 h
Description: Inhibition of cell division in penicillin-susceptible Escherichia coli ATCC 25922 assessed as filamentation after 5 hrs by phase contrast microscopy

[7] = tested on: Pseudomonas aeruginosa; assay: microbe, parasite or virus in culture; settings: ATCC 27853, 24 h
Description: Antibacterial activity against penicillin-susceptible Pseudomonas aeruginosa ATCC 27853 after 24 hrs by broth microdilution method

[8] = tested on: Staphylococcus aureus; assay: Antibacterial activity against penicillin-resistant Staphylococcus aureus clinical isolates after 24 hrs by broth microdilution method
[9] = tested on: Staphylococcus aureus; assay: microbe, parasite or virus in culture; settings: ATCC 25923, 24 h
Description: Antibacterial activity against penicillin-susceptible Staphylococcus aureus ATCC 25923 after 24 hrs by broth microdilution method

[10] = tested on: Staphylococcus aureus; assay: microbe, parasite or virus in culture; settings: ATCC 25923, 5 h
Description: Inhibition of cell division in penicillin-susceptible Staphylococcus aureus ATCC 25923 assessed as ballooning after 5 hrs by phase contrast microscopy

[11] = tested on: Bacillus subtilis; assay: microbe, parasite or virus in culture; settings: ATCC 9372, 5 h
Description: Inhibition of cell division in penicillin-susceptible Bacillus subtilis ATCC 9372 assessed as filamentation after 5 hrs by phase contrast microscopy

[12] = tested on: Staphylococcus aureus; assay: microbe, parasite or virus in culture; settings: ATCC 29213, 24 h
Description: Antibacterial activity against methicillin-resistant Staphylococcus aureus ATCC 29213 after 24 hrs by broth microdilution method

Structure (SMILES)	MIC [1] [µg/mL]	MIC [2] [µg/mL]	MIC [3] [µg/mL]	MIC [4] [µg/mL]	MIC [5] [µg/mL]	MIC [6] [µg/mL]	MIC [7] [µg/mL]	MIC [8] [µg/mL]	MIC [9] [µg/mL]	MIC [10] [µg/mL]	MIC [11] [µg/mL]	MIC [12] [µg/mL]
CCN(CC)C(=O)/C=C/c1cc(OC)c(OC)c(OC)c1	128 (≈ 436 µM)	> 128	128 (≈ 436 µM)	128 (≈ 436 µM)	> 128	128 (≈ 436 µM)	128 (≈ 436 µM)	64 (≈ 218 µM)	64 (≈ 218 µM)	32 (≈ 109 µM)	128 (≈ 436 µM)	> 128
COc1cc(/C=C/C(=O)N(C)C)cc(OC)c1OC	128 (≈ 482 µM)	> 128	128 (≈ 482 µM)	128 (≈ 482 µM)	> 128	128 (≈ 482 µM)	128 (≈ 482 µM)	> 128	> 128	> 128	> 128	> 128
O=C(/C=C/c1ccccc1Cl)N1CCN(C(c2ccccc2)c2ccc(Cl)cc2)CC1 (centres undefined)	> 128	> 128	128 (≈ 284 µM)	> 128	> 128	> 128	> 128	> 128	> 128	> 128	> 128	> 128
COc1ccc(/C=C/C(=O)n2c(C)nc3ccccc32)cc1	128 (≈ 438 µM)	32 (≈ 109 µM)	> 128	128 (≈ 438 µM)	> 128	> 128	128 (≈ 438 µM)	64 (≈ 219 µM)	128 (≈ 438 µM)	> 128	> 128	128 (≈ 438 µM)
C#CCNC(=O)/C=C/c1ccc(OC)c(OC)c1	> 128		> 128	> 128		> 128	> 128	> 128	> 128	> 128	> 128	> 128
CCN(CC)C(=O)/C=C/c1ccc(OC)c(OC)c1	128 (≈ 486 µM)	> 128	128 (≈ 486 µM)	128 (≈ 486 µM)	> 128	128 (≈ 486 µM)	> 128	> 128	> 128	64 (≈ 243 µM)	128 (≈ 486 µM)	> 128
CC(C)NC(=O)/C=C/c1ccc([N+](=O)[O-])cc1	> 128		> 128	> 128		> 128	> 128	> 128	> 128	> 128	> 128	> 128
O=C(/C=C/c1ccc(Cl)cc1Cl)N1CCN(C(c2ccccc2)c2ccc(Cl)cc2)CC1 (centres undefined)	> 128	> 128	> 128	> 128	> 128	> 128	> 128	> 128	> 128	64 (≈ 132 µM)	64 (≈ 132 µM)	> 128
COc1ccc(/C=C/C(=O)N2CCOCC2)cc1OC	128 (≈ 462 µM)	> 128	> 128	128 (≈ 462 µM)	> 128	128 (≈ 462 µM)	> 128	> 128	> 128	> 128	> 128	> 128
O=C(O)/C=C/c1ccccc1 [CINNAMIC ACID]	> 128	> 128	> 128	> 128	> 128	> 128	> 128	> 128	> 128	> 128	> 128	> 128
COc1ccccc1/C=C/C(=O)N1CCN(C(c2ccccc2)c2ccc(Cl)cc2)CC1 (centres undefined)	> 128	> 128	> 128	> 128	> 128	> 128	> 128	> 128	> 128	64 (≈ 143 µM)	> 128	> 128
C#CCNC(=O)/C=C/c1ccc([N+](=O)[O-])cc1	> 128		> 128	> 128		> 128	> 128	> 128	> 128	> 128	> 128	> 128
COc1ccc(/C=C/C(=O)N(C)C)cc1OC	128 (≈ 544 µM)	> 128	> 128	128 (≈ 544 µM)	> 128	128 (≈ 544 µM)	128 (≈ 544 µM)	64 (≈ 272 µM)	32 (≈ 136 µM)	8 (≈ 34 µM)	> 128	> 128
CCCNC(=O)/C=C/c1ccc([N+](=O)[O-])cc1	> 128		> 128	> 128		> 128	> 128	> 128	> 128	> 128	> 128	> 128
COc1cc(/C=C/C(=O)N2CCOCC2)cc(OC)c1OC	128 (≈ 416 µM)	> 128	> 128	128 (≈ 416 µM)	> 128	128 (≈ 416 µM)	> 128	> 128	64 (≈ 208 µM)	16 (≈ 52.1 µM)	128 (≈ 416 µM)	128 (≈ 416 µM)
CCCCNC(=O)/C=C/c1ccc(OC)c(OC)c1	> 128		> 128	> 128		> 128	> 128	> 128	> 128	> 128	> 128	> 128
O=C(/C=C/c1ccc(F)cc1)N1CCOCC1	128 (≈ 544 µM)	> 128	128 (≈ 544 µM)	128 (≈ 544 µM)	> 128	128 (≈ 544 µM)	128 (≈ 544 µM)	> 128	> 128	> 128	128 (≈ 544 µM)	> 128
CCCCNC(=O)/C=C/c1ccc(C#N)cc1	> 128		> 128	> 128		> 128	> 128	> 128	> 128	> 128	> 128	> 128
COc1cc(/C=C/C(=O)CC(=O)/C=C/c2ccc(O)c(OC)c2)ccc1O [CURCUMIN]	32 (≈ 86.9 µM)			> 128	> 128	> 128	> 128	> 128	> 128	> 128	16 (≈ 43.4 µM)	> 128
CCCCNC(=O)/C=C/c1ccc([N+](=O)[O-])cc1	> 128		> 128	> 128		> 128	> 128	> 128	> 128	> 128	> 128	> 128
